From patent US4521408A, “Antibiotics-859A and production thereof” (priority 1982, dated 1985)

Experiments:
Assay type in all cases: cell-based
[1] = tested on: Pseudomonas clinical isolate B184; assay: Comparative lethality in agar dilution test, isolate B184
Experimental: (§1) 859A2, carbenicillin, and gentamicin were compared in agar dilution, surface-inoculated assays at the minimum bactericidal concentration (MBC), and at 1/2 and 1/4 of the MBC, vs four clinical isolates of Pseudomonas.
(§2) Clinical isolates were supplied on nutrient agar-yeast extract slants. Strains B145 and B184 were reported as non-lactamase-containing strains whereas strains B126 and B189 contained lactamase.
(§3) A loopful of cells of each culture was transferred to 10 ml nutrient broth-yeast (NBY) extract and incubated for 16 hours at 37° C. on the shaker. The inocula were adjusted to O.D.=0.22 at 660 nm with NBY and further diluted with NBY to 1:250,000. One tenth (0.1) ml of the diluted cell suspension was added to plates containing 10 ml of Brain Heart Infusion Agar and spread uniformly over the surface with a sterile glass "hockey stick". Stock solutions of antibiotics at 10 mg/ml were added to 45° C. agar in appropriate amounts. […] After overnight incubation of plates at 37° C., a visual count of colonies was made.

[2] = tested on: Pseudomonas clinical isolate B126; assay: Comparative lethality in agar dilution test, isolate B126
Experimental: as §1, §2, §3

[3] = tested on: Pseudomonas clinical isolate B145; assay: Comparative lethality in agar dilution test, isolate B145
Experimental: as §1, §2, §3

[4] = tested on: Pseudomonas clinical isolate B189; assay: Comparative lethality in agar dilution test, isolate B189
Experimental: as §1, §2, §3

Compound: CC1(C)S[C@@H]2[C@H](NC(=O)C(C(=O)O)c3ccccc3)C(=O)N2[C@H]1C(=O)O (stereo partly drawn) [Carbenicillin, carbenicillin]
- # of Colonies ([1]; 15.7 μg/ml): 75
- # of Colonies ([1]; 31.3 μg/ml): 100
- # of Colonies ([1]; 62.5 μg/ml): 0
- # of Colonies ([2]; 125 μg/ml): 68
- # of Colonies ([2]; 250 μg/ml): 28
- # of Colonies ([2]; 500 μg/ml): 0
- # of Colonies ([3]; 15.7 μg/ml): 368
- # of Colonies ([3]; 31.3 μg/ml): 335
- # of Colonies ([3]; 62.5 μg/ml): 0
- # of Colonies ([4]; 31.3 μg/ml): 333
- # of Colonies ([4]; 62.5 μg/ml): 263
- # of Colonies ([4]; 125 μg/ml): 0

Compound: gentamicin
- # of Colonies ([1]; 0.39 μg/ml): 79
- # of Colonies ([1]; 0.79 μg/ml): 19
- # of Colonies ([1]; 1.56 μg/ml): 0
- # of Colonies ([2]; 0.39 μg/ml): 49
- # of Colonies ([2]; 0.78 μg/ml): 7
- # of Colonies ([2]; 1.56 μg/ml): 0
- # of Colonies ([3]; 12.5 μg/ml): 233
- # of Colonies ([3]; 25 μg/ml): 121
- # of Colonies ([3]; 50 μg/ml): 0
- # of Colonies ([4]; 0.78 μg/ml): 278
- # of Colonies ([4]; 1.56 μg/ml): 53
- # of Colonies ([4]; 3.12 μg/ml): 0
